The target of assay [1] is Beta Secretase enzyme (BACE) (Homo sapiens, UniProt P56817). The assay is described as follows: In vitro enzymatic BACE FRET (fluorescence resonance energy transfer) assay. It counts as biochemical. As to conditions: average IC50, enzyme assay; read-out: BACE 1 FRET assay. A digest of the protocol:
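Enzyme activity was measured at pH 4.2 (0.05 M acetate, 10% DMSO final, 100 uM genapol) by cleavage of a 50 nM quenched fluorogenic peptide. After one hour, Tris was added to neutralise the pH and fluorescence was recorded.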

Assay [2] concerns Aβ40 in conditioned medium of cells stably expressing Amyloid Precursor Protein (APP). The assay is described as follows: In vitro BACE cell-based assay (Aβ40 in conditioned medium, sandwich ELISA). The settings on record: Homo sapiens, HEK293, average IC50; read-out: HEK cell assay. A digest of the protocol: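 The sandwich ELISA pairs pAb40 capture (3 h, 4 °C) with 6E10 detection (2 h, 4 °C) and a streptavidin-europium TRF read-out. Supernatants come from APP-expressing cells grown in 10% FBS DMEM.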

Sequence of Beta Secretase enzyme (BACE) (P56817 46-501, species assumed): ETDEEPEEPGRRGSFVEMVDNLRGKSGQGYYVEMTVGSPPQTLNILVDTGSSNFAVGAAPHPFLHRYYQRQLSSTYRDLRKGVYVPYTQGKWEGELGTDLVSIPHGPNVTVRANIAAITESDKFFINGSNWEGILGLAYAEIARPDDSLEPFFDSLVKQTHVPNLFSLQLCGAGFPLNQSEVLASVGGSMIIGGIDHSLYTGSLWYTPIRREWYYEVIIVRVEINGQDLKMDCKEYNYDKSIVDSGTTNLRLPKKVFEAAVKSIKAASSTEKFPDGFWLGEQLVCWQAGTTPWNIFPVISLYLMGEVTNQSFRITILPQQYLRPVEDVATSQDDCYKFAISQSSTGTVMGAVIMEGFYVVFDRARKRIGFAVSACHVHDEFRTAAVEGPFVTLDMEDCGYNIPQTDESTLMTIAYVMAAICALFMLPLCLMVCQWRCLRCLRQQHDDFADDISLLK

For the compound `CC1(COc2cc3c(cc2F)Oc2ccc(-c4ccc(F)nc4)cc2[C@@]32COC(N)=N2)COC1` [Example 326, (4S)-3′-fluoro-7′-(6-fluoro-3-pyridinyl)-2′-((3-methyl-3-oxetanyl)methoxy)spiro[1,3-oxazole-4,9′-xanthen]-2-amine], the IC50 in assay [1] is 0.0197 µM; in assay [2], 0.0616 µM.
In the case of `CC1(COc2cc3c(cc2F)Oc2ccc(-c4cncc(F)c4)cc2[C@@]32COC(N)=N2)COC1` [Example 327, (4S)-3′-fluoro-7′-(5-fluoro-3-pyridinyl)-2′-((3-methyl-3-oxetanyl)methoxy)spiro[1,3-oxazole-4,9′-xanthen]-2-amine], the IC50 is 0.0041 µM in assay [1] and 0.0215 µM in assay [2].
Take `Cc1cncc(-c2ccc3c(c2)[C@@]2(COC(N)=N2)c2cc(OCC4(C)COC4)c(F)cc2O3)c1` [Example 328, (4S)-3′-fluoro-2′-((3-methyl-3-oxetanyl)methoxy)-7′-(5-methyl-3-pyridinyl)spiro[1,3-oxazole-4,9′-xanthen]-2-amine]: the IC50 in assay [1] turned out to be 0.0236 µM; in assay [2] it was 0.0456 µM.
As for `COc1cncc(-c2ccc3c(c2)[C@@]2(COC(N)=N2)c2cc(OCC4(C)COC4)c(F)cc2O3)c1` [Example 329, (4S)-3′-fluoro-7′-(5-methoxy-3-pyridinyl)-2′-((3-methyl-3-oxetanyl)methoxy)spiro[1,3-oxazole-4,9′-xanthen]-2-amine], the values for the IC50 in assay [1] and in assay [2] were 0.0089 µM and 0.0525 µM, respectively.
On the same counts, the results for `CC1(COc2cc3c(cc2F)Oc2ccc(-c4cncc(C#N)c4)cc2[C@@]32COC(N)=N2)COC1` [Example 330, 5-((4S)-2-amino-6′-fluoro-7′-((3-methyl-3-oxetanyl)methoxy)spiro[1,3-oxazole-4,9′-xanthen]-2′-yl)-3-pyridinecarbonitrile] are 0.0088 µM and 0.0336 µM.
Regarding `CC1(COc2cc3c(cc2F)Oc2ccc(-c4cccc(C#N)c4)cc2[C@@]32COC(N)=N2)COC1` [Example 331, 3-((4S)-2-amino-6′-fluoro-7′-((3-methyl-3-oxetanyl)methoxy)spiro[1,3-oxazole-4,9′-xanthen]-2′-yl)benzonitrile], the IC50 in assay [1] came to 0.0139 µM; in assay [2], 0.0855 µM.
Consider `Cn1cc(-c2ccc3c(c2)[C@@]2(COC(N)=N2)c2cc(OCC4(C)COC4)c(F)cc2O3)cn1` [Example 332, (4S)-3′-fluoro-2′-((3-methyl-3-oxetanyl)methoxy)-7′-(1-methyl-1H-pyrazol-4-yl)spiro[1,3-oxazole-4,9′-xanthen]-2-amine], for which the IC50 came to 0.545 µM in assay [1] and 0.49 µM in assay [2].
For `CC1(COc2cc3c(cc2F)Oc2ccc(-c4cncc(Cl)c4)cc2[C@@]32COC(N)=N2)COC1` [Example 333, (4S)-7′-(5-chloro-3-pyridinyl)-3′-fluoro-2′-((3-methyl-3-oxetanyl)methoxy)spiro[1,3-oxazole-4,9′-xanthen]-2-amine], the IC50 amounted to 0.0024 µM in assay [1] and 0.0218 µM in assay [2].
In the case of `NC1=N[C@@]2(CO1)c1cc(-c3cccnc3F)ccc1Oc1cc(F)c(C3CCOCC3)cc12` [Example 334, (4S)-3′-fluoro-7′-(2-fluoro-3-pyridinyl)-2′-(tetrahydro-2H-pyran-4-yl)spiro[1,3-oxazole-4,9′-xanthen]-2-amine], the IC50 was 0.0189 µM in assay [1] and 0.0676 µM in assay [2].
`NC1=N[C@]2(CO1)c1cc(N3CCOCC3)ccc1Oc1cc(F)c(-c3cncnc3)cc12` [Example 335, (4S)-3′-fluoro-7′-(4-morpholinyl)-2′-(5-pyrimidinyl)spiro[1,3-oxazole-4,9′-xanthen]-2-amine]: the values for the IC50 in assay [1] and in assay [2] were 0.0164 µM and 0.0433 µM, respectively.
As to `CC(C)(O)C#Cc1ccc2c(c1)[C@]1(COC(N)=N1)c1cc(-c3cncnc3)c(F)cc1O2` [Example 336, 4-((4R)-2-amino-6′-fluoro-7′-(5-pyrimidinyl)spiro[1,3-oxazole-4,9′-xanthen]-2′-yl)-2-methyl-3-butyn-2-ol], the IC50 was 0.0064 µM in assay [1] and 0.0193 µM in assay [2].
For `CC(C)(C)C#Cc1cnc2c(c1)[C@@]1(COC(N)=N1)c1c(ccc(-c3cncnc3)c1F)O2` [Example 337, (5S)-3-(3,3-dimethyl-1-butyn-1-yl)-6-fluoro-7-(5-pyrimidinyl)spiro[chromeno[2,3-b]pyridine-5,4′-[1,3]oxazol]-2′-amine], the IC50 in assay [1] stood at 0.836 µM; in assay [2], 0.535 µM.
On to `CC(C)(C)C#Cc1cnc2c(c1)[C@@]1(COC(N)=N1)c1cc(-c3cncnc3)c(F)cc1O2` [Example 338, (5R)-3-(3,3-dimethyl-1-butyn-1-yl)-8-fluoro-7-(5-pyrimidinyl)spiro[chromeno[2,3-b]pyridine-5,4′-[1,3]oxazol]-2′-amine], for which the IC50 turned out to be 0.213 µM in assay [1] and 1.24 µM in assay [2].
On to `CC1(C#Cc2cnc3c(c2)[C@@]2(COC(N)=N2)c2c(ccc(-c4cccnc4F)c2F)O3)COC1` [Example 341, (5S)-6-fluoro-7-(2-fluoro-3-pyridinyl)-3-((3-methyl-3-oxetanyl)ethynyl)spiro[chromeno[2,3-b]pyridine-5,4′-[1,3]oxazol]-2′-amine], for which the IC50 in assay [1] amounted to 0.154 µM; in assay [2] it was 0.566 µM.
Regarding `CC1(C#Cc2cnc3c(c2)[C@]2(COC(N)=N2)c2c(ccc(-c4ccc(F)nc4)c2F)O3)COC1` [Example 342, (5R)-6-fluoro-7-(6-fluoro-3-pyridinyl)-3-((3-methyl-3-oxetanyl)ethynyl)spiro[chromeno[2,3-b]pyridine-5,4′-[1,3]oxazol]-2′-amine], the IC50 turned out to be 0.0024 µM in assay [1] and 0.016 µM in assay [2].
As to `CC1(C#Cc2cnc3c(c2)[C@@]2(COC(N)=N2)c2c(ccc(-c4ccc(F)nc4)c2F)O3)COC1` [Example 343, (5S)-6-fluoro-7-(6-fluoro-3-pyridinyl)-3-((3-methyl-3-oxetanyl)ethynyl)spiro[chromeno[2,3-b]pyridine-5,4′-[1,3]oxazol]-2′-amine], the IC50 was determined as 0.391 µM in assay [1] and 1.84 µM in assay [2].
As to `CC1(C#Cc2cnc3c(c2)[C@]2(COC(N)=N2)c2c(ccc(-c4cncnc4)c2F)O3)COC1` [Example 344, (5R)-6-fluoro-3-((3-methyl-3-oxetanyl)ethynyl)-7-(5-pyrimidinyl)spiro[chromeno[2,3-b]pyridine-5,4′-[1,3]oxazol]-2′-amine], the IC50 in assay [1] came out at 0.001 µM; in assay [2], 0.0065 µM.
With `CC1(C#Cc2cnc3c(c2)[C@@]2(COC(N)=N2)c2c(ccc(-c4cncnc4)c2F)O3)COC1` [Example 345, (5S)-6-fluoro-3-((3-methyl-3-oxetanyl)ethynyl)-7-(5-pyrimidinyl)spiro[chromeno[2,3-b]pyridine-5,4′-[1,3]oxazol]-2′-amine], the values for the IC50 in assay [1] and in assay [2] were 0.094 µM and 0.65 µM, respectively.
Consider `NC1=N[C@]2(CO1)c1cc(C3=CCOCC3)cnc1Oc1ccc(-c3cccnc3F)c(F)c12` [Example 346, (5R)-3-(3,6-dihydro-2H-pyran-4-yl)-6-fluoro-7-(2-fluoro-3-pyridinyl)spiro[chromeno[2,3-b]pyridine-5,4′-[1,3]oxazol]-2′-amine], for which the IC50 in assay [1] was found to be 0.0008 µM; in assay [2], 0.0067 µM.
Turning to `NC1=N[C@@]2(CO1)c1cc(C3=CCOCC3)cnc1Oc1ccc(-c3cccnc3F)c(F)c12` [Example 347, (5S)-3-(3,6-dihydro-2H-pyran-4-yl)-6-fluoro-7-(2-fluoro-3-pyridinyl)spiro[chromeno[2,3-b]pyridine-5,4′-[1,3]oxazol]-2′-amine], the IC50 in assay [1] came to 0.356 µM; in assay [2], 0.457 µM.
Regarding `CC1(C)C=C(c2cnc3c(c2)[C@]2(COC(N)=N2)c2c(ccc(-c4cccnc4F)c2F)O3)CCO1` [Example 348, (5R)-3-(6,6-dimethyl-3,6-dihydro-2H-pyran-4-yl)-6-fluoro-7-(2-fluoro-3-pyridinyl)spiro[chromeno[2,3-b]pyridine-5,4′-[1,3]oxazol]-2′-amine], the IC50 in assay [1] turned out to be 0.0008 µM; in assay [2] it was 0.0088 µM.
As to `CC1(C)CC(c2cnc3c(c2)[C@]2(COC(N)=N2)c2c(ccc(-c4cccnc4F)c2F)O3)=CCO1` [Example 349, (5R)-3-(2,2-dimethyl-3,6-dihydro-2H-pyran-4-yl)-6-fluoro-7-(2-fluoro-3-pyridinyl)spiro[chromeno[2,3-b]pyridine-5,4′-[1,3]oxazol]-2′-amine], the IC50 in assay [1] was determined as 0.0007 µM; in assay [2], 0.008 µM.
Take `CC1(C)C=C(c2cnc3c(c2)[C@@]2(COC(N)=N2)c2c(ccc(-c4cccnc4F)c2F)O3)CCO1` [Example 350, (5S)-3-(6,6-dimethyl-3,6-dihydro-2H-pyran-4-yl)-6-fluoro-7-(2-fluoro-3-pyridinyl)spiro[chromeno[2,3-b]pyridine-5,4′-[1,3]oxazol]-2′-amine]: the IC50 in assay [1] came out at 0.53 µM; in assay [2] it was 0.685 µM.
With `CC1(C)CC(c2cnc3c(c2)[C@@]2(COC(N)=N2)c2c(ccc(-c4cccnc4F)c2F)O3)=CCO1` [Example 351, (5S)-3-(2,2-dimethyl-3,6-dihydro-2H-pyran-4-yl)-6-fluoro-7-(2-fluoro-3-pyridinyl)spiro[chromeno[2,3-b]pyridine-5,4′-[1,3]oxazol]-2′-amine], the IC50 was found to be 0.389 µM in assay [1] and 0.854 µM in assay [2].
On the same counts, the results for `CC1(C)C=C(c2cnc3c(c2)[C@]2(COC(N)=N2)c2c(ccc(-c4cncnc4)c2F)O3)CCO1` [Example 352, (5R)-3-(6,6-dimethyl-3,6-dihydro-2H-pyran-4-yl)-6-fluoro-7-(5-pyrimidinyl)spiro[chromeno[2,3-b]pyridine-5,4′-[1,3]oxazol]-2′-amine] are 0.0028 µM and 0.0194 µM.
For the compound `CC1(C)CC(c2cnc3c(c2)[C@]2(COC(N)=N2)c2c(ccc(-c4cncnc4)c2F)O3)=CCO1` [Example 353, (5R)-3-(2,2-dimethyl-3,6-dihydro-2H-pyran-4-yl)-6-fluoro-7-(5-pyrimidinyl)spiro[chromeno[2,3-b]pyridine-5,4′-[1,3]oxazol]-2′-amine], the IC50 was 0.0012 µM in assay [1] and 0.0158 µM in assay [2].
